Legend:
SARS-CoV-2 Mpro = SARS-CoV-2 Mpro (Severe acute respiratory syndrome coronavirus 2, UniProt P0DTD1); assay: Mpro protease activity assay (IC50 test, fluorogenic substrate)
main protease = main protease (Severe acute respiratory syndrome coronavirus 2, UniProt P0DTD1); assay: Dissociation constant (KD) test by fluorescence titration; format: binding, SARS-CoV-2; settings: inhibitor titration, intrinsic fluorescence, Scatchard plot

Row | SMILES | IC50 (SARS-CoV-2 Mpro) [µM] | Kd (main protease) [µM]
1 | Cc1ccc(CNC(=O)C2CC(n3cnnn3)CN2Cc2ccc(OCc3ccccc3)cc2)cc1 (stereo not drawn) [CB-25] | 22.7 | 10.8 ± 1.32
2 | Cc1cc(CNC(=O)Nn2cnc3ccccc32)ccc1F [CP-1] | 18.5 | 5.08 ± 0.38
3 | Cc1ccc(C2CC(c3cccs3)=NN2C(=O)CSc2nnc(CNC(=O)c3ccco3)n2-c2cccc(Cl)c2)cc1 (stereo not drawn) [LC24-20] | 32.9 | 20 ± 1.27

Reference: PMC9967108 (Viruses, 2023)
